Here are results for 24 molecules from ChEMBL document CHEMBL1201862, “PubChem BioAssay data set” (2004).

Molecules are shown by their SMILES. The source made the active and inactive calls. Where only a bound is given, the exact number is not on record here.

Test [1] addresses Peroxisome proliferator-activated receptor gamma/Nuclear receptor coactivator 1 (Homo sapiens, UniProt P37231). Type of test: functional.
The target in test [2] is Peroxisome proliferator-activated receptor gamma/Nuclear receptor coactivator 2 (Homo sapiens, UniProt P37231). The class given is functional.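 Further: agonist potency for raising coactivator recruitment to the receptor.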
For test [3], the target named is Peroxisome proliferator-activated receptor gamma/Nuclear receptor coactivator 3 (Homo sapiens, UniProt P37231). Type of test: functional.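 Further: agonist potency for raising coactivator recruitment to the receptor.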
Peroxisome proliferator-activated receptor gamma/Nuclear receptor coactivator 3, sequence (P37231 whole entry): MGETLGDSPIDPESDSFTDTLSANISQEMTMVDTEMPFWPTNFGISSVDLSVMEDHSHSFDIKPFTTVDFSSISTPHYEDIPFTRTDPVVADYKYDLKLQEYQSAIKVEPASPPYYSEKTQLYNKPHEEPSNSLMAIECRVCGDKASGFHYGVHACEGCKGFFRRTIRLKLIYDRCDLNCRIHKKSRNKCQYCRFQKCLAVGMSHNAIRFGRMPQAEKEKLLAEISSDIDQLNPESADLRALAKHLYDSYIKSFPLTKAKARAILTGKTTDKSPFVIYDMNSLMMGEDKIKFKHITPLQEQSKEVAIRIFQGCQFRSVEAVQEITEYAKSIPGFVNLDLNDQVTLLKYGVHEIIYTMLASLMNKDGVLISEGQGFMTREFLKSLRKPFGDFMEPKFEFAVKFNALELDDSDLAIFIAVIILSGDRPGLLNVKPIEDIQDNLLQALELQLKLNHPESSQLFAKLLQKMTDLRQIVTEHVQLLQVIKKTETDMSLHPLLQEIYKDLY
Peroxisome proliferator-activated receptor gamma/Nuclear receptor coactivator 3, sequence (Q9Y6Q9 whole entry, further chain): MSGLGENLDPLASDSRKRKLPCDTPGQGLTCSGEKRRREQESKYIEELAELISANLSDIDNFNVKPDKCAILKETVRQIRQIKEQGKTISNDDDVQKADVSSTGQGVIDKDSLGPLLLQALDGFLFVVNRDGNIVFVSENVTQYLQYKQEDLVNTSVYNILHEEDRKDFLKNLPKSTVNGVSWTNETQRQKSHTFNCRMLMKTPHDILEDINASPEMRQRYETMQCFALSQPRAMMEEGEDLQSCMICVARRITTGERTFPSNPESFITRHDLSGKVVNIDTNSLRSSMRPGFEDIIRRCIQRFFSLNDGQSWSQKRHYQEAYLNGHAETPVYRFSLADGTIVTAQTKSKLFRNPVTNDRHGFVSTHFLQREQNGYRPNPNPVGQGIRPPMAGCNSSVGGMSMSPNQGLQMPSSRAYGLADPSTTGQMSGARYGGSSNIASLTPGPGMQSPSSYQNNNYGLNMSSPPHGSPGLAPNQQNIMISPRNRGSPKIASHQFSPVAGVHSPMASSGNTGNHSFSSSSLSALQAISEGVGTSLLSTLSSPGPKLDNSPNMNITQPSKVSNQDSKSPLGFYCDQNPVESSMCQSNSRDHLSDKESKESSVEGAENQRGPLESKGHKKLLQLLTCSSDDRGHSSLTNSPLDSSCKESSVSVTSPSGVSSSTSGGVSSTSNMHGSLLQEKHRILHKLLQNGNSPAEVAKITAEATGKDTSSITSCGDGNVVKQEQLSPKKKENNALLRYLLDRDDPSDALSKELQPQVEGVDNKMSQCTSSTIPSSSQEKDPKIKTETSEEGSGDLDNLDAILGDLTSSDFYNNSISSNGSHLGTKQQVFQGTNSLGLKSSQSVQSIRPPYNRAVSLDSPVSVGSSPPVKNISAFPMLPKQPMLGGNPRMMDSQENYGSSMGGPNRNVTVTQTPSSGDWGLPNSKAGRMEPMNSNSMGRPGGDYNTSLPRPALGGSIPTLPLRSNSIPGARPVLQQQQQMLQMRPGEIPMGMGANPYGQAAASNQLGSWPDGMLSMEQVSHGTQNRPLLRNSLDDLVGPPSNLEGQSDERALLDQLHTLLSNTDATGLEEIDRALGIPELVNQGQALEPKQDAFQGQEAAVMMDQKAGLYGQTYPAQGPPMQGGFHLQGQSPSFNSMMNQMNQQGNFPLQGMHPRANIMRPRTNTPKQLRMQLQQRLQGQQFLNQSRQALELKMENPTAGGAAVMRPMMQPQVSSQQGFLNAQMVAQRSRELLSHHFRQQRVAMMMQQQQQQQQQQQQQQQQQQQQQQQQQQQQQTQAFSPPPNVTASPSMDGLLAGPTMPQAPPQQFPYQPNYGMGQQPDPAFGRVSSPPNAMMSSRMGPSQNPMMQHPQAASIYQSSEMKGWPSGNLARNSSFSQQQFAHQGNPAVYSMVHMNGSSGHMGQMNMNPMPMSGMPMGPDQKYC
For test [4], the target named is T1, Coagulation factor XII (Homo sapiens, UniProt P00748).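 Further: activated factor XIIa alpha cleaving a fluorogenic AMC peptide substrate; inhibitor potency from loss of enzyme activity.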
T1 sequence (P00748 whole entry): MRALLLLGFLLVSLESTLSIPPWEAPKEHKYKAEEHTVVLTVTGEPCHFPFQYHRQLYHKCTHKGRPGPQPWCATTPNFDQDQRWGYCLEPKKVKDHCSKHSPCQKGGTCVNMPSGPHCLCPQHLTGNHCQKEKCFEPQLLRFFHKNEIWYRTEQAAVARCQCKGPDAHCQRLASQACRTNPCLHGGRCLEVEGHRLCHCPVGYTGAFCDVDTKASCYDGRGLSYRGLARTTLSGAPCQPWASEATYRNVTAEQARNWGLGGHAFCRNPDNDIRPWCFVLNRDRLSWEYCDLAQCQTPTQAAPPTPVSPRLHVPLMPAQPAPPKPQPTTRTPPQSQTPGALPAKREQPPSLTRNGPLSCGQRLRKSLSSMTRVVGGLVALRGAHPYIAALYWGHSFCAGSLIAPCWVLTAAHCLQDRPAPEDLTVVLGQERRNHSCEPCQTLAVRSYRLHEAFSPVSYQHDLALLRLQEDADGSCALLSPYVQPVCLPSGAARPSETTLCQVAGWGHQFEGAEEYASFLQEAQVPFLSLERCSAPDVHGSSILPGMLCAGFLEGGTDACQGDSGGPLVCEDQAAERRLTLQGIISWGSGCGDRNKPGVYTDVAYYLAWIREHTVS
Type of test: functional.

Test [5] deals with T2, Protein skinhead-1 (Caenorhabditis elegans, UniProt P34707).
T2 sequence (P34707 whole entry): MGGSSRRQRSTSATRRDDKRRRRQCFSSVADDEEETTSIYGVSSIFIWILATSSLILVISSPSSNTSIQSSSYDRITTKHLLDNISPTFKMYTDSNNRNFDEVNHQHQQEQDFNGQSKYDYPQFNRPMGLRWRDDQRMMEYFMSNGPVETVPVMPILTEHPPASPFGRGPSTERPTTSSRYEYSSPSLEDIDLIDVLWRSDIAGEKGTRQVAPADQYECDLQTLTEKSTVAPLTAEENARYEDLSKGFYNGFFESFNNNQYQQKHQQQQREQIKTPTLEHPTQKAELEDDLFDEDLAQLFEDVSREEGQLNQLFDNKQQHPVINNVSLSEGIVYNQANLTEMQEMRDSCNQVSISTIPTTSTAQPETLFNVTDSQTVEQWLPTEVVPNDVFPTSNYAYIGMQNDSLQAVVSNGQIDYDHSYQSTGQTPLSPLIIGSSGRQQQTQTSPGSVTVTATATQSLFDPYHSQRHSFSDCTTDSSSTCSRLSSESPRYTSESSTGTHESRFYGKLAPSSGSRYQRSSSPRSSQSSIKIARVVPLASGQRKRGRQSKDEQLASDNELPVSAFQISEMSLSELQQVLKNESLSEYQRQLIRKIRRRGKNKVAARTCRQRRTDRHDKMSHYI
Type of test: functional.

Test [6] deals with T3, Short transient receptor potential channel 4 (Mus musculus, UniProt Q9QUQ5).
T3 sequence (Q9QUQ5 whole entry): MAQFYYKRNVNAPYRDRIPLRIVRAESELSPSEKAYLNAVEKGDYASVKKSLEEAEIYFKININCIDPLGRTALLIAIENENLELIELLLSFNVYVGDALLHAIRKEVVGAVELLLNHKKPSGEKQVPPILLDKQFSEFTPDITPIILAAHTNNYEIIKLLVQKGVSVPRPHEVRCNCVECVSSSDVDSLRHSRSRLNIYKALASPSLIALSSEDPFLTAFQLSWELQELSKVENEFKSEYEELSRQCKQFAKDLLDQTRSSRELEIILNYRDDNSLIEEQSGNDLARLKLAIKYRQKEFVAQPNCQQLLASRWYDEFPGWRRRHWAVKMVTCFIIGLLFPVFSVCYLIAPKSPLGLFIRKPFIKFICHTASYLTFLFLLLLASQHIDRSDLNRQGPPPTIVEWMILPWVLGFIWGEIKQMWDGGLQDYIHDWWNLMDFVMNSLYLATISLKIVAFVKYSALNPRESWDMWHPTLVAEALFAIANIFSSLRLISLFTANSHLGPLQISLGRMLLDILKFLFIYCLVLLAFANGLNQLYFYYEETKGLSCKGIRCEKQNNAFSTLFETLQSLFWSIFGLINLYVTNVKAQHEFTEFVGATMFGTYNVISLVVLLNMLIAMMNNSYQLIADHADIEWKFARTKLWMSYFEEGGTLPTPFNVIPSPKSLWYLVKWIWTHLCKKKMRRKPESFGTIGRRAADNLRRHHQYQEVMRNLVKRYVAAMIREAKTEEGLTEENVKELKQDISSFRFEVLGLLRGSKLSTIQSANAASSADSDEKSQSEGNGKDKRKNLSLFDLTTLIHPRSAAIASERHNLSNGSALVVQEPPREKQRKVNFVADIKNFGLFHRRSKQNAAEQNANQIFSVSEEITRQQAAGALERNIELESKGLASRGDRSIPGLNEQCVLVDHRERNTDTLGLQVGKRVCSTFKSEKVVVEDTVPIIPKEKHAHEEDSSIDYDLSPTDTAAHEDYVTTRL
In words: block of DAMGO-driven TRPC4 calcium entry – cell-based, HEK293 TRPC4/mu-opioid, Fluo-4 calcium, dose response (AID 434942).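 Further: potency of inhibitors blocking the TRPC4 calcium response.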 Type of test: functional.

Test [7] can be described thus: blockers of HIV-1 envelope-mediated cell-cell fusion – cherry-pick, dose response (AID 652057). The class given is functional, cell-based.
Test [8] is described as follows: off-target signal loss in HeLa-CEM21 co-culture – HeLa F-luc CTL cells, cherry-picked, counter-screen for HIV-1 Env fusion inhibitor project, dose response (AID 652040).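 Further: potency for signal decrease marking cytotoxic or nonspecific inhibition.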 Type of test: functional, cell-based. Background: Counterscreens check selectivity or assay interference.
The target in test [9] is Cytochrome P450 3A4 (Homo sapiens, UniProt P08684).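 Further: CYP3A4 tested as one member of a cytochrome P450 panel screen.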
Cytochrome P450 3A4, sequence (P08684 whole entry, the tested form may be a part): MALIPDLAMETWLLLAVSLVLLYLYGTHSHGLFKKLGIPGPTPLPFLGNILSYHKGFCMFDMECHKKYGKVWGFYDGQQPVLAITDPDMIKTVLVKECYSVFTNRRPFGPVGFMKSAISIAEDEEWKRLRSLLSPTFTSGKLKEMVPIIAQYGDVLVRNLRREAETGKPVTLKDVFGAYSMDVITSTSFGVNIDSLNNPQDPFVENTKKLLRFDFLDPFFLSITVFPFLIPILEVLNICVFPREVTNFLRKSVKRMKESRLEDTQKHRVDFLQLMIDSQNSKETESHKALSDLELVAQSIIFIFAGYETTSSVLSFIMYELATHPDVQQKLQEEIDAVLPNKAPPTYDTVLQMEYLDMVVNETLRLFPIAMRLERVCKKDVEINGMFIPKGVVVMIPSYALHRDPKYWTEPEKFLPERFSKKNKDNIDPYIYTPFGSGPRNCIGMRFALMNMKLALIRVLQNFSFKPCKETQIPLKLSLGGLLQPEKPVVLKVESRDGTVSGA
The nature of test [10]: HIV-1 AD8 envelope cell-cell fusion blockers – cherry-pick, dose response (AID 652062).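 Further: luciferase signal from cell-cell fusion driven by HIV-1 clade B AD8 Env; potency is for inhibitors of fusion seen as a drop in luminescence.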 Type of test: functional, cell-based.
Test [11] in a line: blockers of HIV-1 ZM109 envelope-driven cell-cell fusion – HeLa effector, CEM target cells, luciferase, cherry-pick, dose response (AID 652058).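 Further: luciferase signal from HIV-1 Env mediated cell-cell fusion of effector and target cells.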 Type of test: functional, cell-based.
The nature of test [12]: DRD fibroblast viability loss – cell-based, non-viral oncogenic, luminescence, dose response (AID 1934). The class given is functional. Conditions: Homo sapiens.
The test system of test [13] is BJ. In words: cells. The class given is functional, cell-based. Conditions: Homo sapiens.
The subject of test [14] is BJ. Kind of test: BJ-TERT-LT-ST fibroblast viability loss – cell-based, RAS-independent, luminescence, dose response (AID 1935).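 Further: BJ fibroblasts immortalized with TERT plus LT and ST oncogenes.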 Conditions: Homo sapiens. The class given is functional.
The subject of test [15] is BJ. In words: BJ-TERT fibroblast viability loss – cell-based, RAS-independent, luminescence, dose response (AID 1933). The class given is functional. Conditions: Homo sapiens.
Test [16] is described as follows: Luminescence Cell-Based Dose Response HTS to Identify Activators of Luciferase Translation or Activity in H4 […] Cells. [Related pubchem assays: 1829 (Project Summary), 1814 (Primary HTS)]. The class given is functional.
Test [17] relates to H4. Kind of test: Luminescence Cell-Based Dose Response HTS to Identify Activators of 5'UTR Stem-Loop Driven Prion Protein mRNA Translation in H4 Neuroglioblastoma Cells. [Related pubchem assays: 1829 (Project Summary), 1814 (Primary HTS)]. Conditions: Homo sapiens. Type of test: functional.

Peroxisome proliferator-activated receptor gamma/Nuclear receptor coactivator 1, sequence (P37231 whole entry): as the sequence (P37231 whole entry) above
Peroxisome proliferator-activated receptor gamma/Nuclear receptor coactivator 1, sequence (Q15788 whole entry, further chain): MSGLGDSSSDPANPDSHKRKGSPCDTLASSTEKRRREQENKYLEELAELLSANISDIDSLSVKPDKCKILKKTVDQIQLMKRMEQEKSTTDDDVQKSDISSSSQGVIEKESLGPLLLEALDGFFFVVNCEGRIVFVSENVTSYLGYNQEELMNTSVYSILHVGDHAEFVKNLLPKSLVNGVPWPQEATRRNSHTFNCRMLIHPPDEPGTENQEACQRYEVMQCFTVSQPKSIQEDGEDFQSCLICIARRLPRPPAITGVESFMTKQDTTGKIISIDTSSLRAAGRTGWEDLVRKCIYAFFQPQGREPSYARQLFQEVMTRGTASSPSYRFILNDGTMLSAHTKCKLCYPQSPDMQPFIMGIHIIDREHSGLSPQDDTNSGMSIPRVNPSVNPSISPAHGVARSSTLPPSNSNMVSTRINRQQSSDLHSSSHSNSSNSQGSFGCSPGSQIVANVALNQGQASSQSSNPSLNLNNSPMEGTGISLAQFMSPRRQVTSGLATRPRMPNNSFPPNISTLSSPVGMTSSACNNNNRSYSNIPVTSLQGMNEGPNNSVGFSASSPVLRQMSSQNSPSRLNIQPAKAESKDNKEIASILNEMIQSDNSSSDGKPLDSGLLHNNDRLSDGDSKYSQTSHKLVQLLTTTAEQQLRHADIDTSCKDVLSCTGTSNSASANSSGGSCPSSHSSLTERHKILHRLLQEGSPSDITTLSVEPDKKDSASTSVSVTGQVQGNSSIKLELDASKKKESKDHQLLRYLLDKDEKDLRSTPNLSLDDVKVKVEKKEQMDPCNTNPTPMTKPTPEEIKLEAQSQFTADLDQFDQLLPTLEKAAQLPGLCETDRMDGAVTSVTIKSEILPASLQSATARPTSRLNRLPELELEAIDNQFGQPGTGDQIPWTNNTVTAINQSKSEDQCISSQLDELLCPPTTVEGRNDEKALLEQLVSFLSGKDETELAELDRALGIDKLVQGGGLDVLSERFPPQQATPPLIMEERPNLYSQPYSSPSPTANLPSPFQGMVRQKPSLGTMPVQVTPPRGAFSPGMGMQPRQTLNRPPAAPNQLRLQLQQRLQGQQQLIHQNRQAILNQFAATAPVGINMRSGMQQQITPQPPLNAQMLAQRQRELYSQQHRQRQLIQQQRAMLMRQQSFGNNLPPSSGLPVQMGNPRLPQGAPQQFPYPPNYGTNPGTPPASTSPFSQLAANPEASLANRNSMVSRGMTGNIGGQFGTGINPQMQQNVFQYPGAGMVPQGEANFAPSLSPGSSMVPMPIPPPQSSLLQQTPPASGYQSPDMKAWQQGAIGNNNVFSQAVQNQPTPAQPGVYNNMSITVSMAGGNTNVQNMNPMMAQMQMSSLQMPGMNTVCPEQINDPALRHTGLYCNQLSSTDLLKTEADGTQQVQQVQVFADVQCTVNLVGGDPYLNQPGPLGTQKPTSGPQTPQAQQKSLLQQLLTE

For `CCOC(=O)c1s/c(=N\C(=O)c2ccc(OC(C)C)cc2)n(C)c1C`, the EC50 (commonly the concentration at which the effect is half-maximal) in test [1] is 18.3 µM (not active); in test [2], 16.2 µM (not active); in test [3], 20.3 µM (not active).
With `COc1ccc(CN(Cc2ccc(OC)cc2)C(=O)c2cccs2)cc1`, in [4], the IC50 (as a rule, the concentration that inhibits the measured activity by half) was > 50 µM (inactive).
`CCc1nnc(NC(=O)CSc2ncnc3c2oc2ccccc23)s1`: the EC50 in [1] is 22.6 µM (not active); in test [2] it was 18.3 µM (not active); in test [3], 23.5 µM (not active).
`CCc1nnc(NC(=O)CCC(=O)N2CCN(CCOc3ccc(C)cc3)CC2)s1`: the IC50 in test [4] is > 50 µM (inactive).
On to `COC(=O)c1cccc(NC(=O)CSc2nnc[nH]2)c1`, for which the IC50 in test [4] is > 50 µM (inactive).
In the case of `Clc1ccc(CSc2ccc(-c3cccnc3)nn2)cc1`, the IC50 in [5] is 83.9 µM (inactive).
With `COc1cccc2cc(C(N)=O)/c(=N\NC(=O)c3ccccc3)oc12`, the EC50 in [6] is 0.188 µM (active).
As for `Cc1ccc(-n2cccn2)c(CN2CCCC(C(=O)c3ccc4c(c3)OCO4)C2)c1` (stereo unspecified), in [6], the EC50 is 7.5 µM (active).
As for `O=C(COC(=O)C1CC1)Nc1nc(-c2ccc(F)c(F)c2)cs1`, the EC50 in [6] was 2.99 µM (active).
With `FCCCOc1ccc(-c2ccnc(-c3ccccc3)n2)cc1`, the IC50 in test [5] is 52.3 µM (inactive).
In the case of `COc1cccc(C2=NN(C(=O)c3ccco3)C(c3ccco3)C2)c1` (stereo unspecified), in test [6], the EC50 is 1.88 µM (active).
With `Cc1nc2ccccc2n1CCOc1ccc(F)cc1`, the EC50 in test [6] was 0.376 µM (active).
For `CCCC(=O)NNC(=O)c1ccoc1C`, in [4], the IC50 was > 50 µM (inactive).
As to `O=C1c2cccnc2C(Nc2ccc(S(=O)(=O)N3CCCCC3)cc2)N1Cc1ccccc1` (stereo unspecified), the values for the AC50 in test [7] and in [8] were 7.23 µM (active) and 58.9 µM (active), respectively.
For the molecule `COc1ccc(C2CC(=O)c3c([nH]c(C(=O)OC(C)C)c3C)C2)cc1OC` (stereo unspecified), the EC50 in [1], in test [2] and in test [3] was > 79.4 µM (not active) throughout.
Consider `CCOCCCn1cnc2c(c1=O)c1nc3ccccc3nc1n2-c1ccccc1`, for which the IC50 in [4] is > 50 µM (inactive). The AC50 (commonly the concentration at which the activity in the assay is half-maximal) in [9] was 20 µM (inconclusive).
Turning to `O=C(Nc1ccc(F)cc1)C1CCCN1S(=O)(=O)c1ccc(Br)cc1` (stereo unspecified), the AC50 was 16.3 µM (active) in [10], 7.75 µM (active) in test [7], 14.5 µM (active) in test [8] and 6.89 µM (active) in test [11].
For `CC(C)(C)n1nnnc1C(c1cccs1)N(Cc1cccnc1)Cc1ccco1` (stereo unspecified), the AC50 in [10] was 7.08 µM (active); in test [7], 3.99 µM (active); in [8], 15.2 µM (active); in test [11], 4.74 µM (active).
Consider `C[C@H]1CN([C@@H](C)CO)C(=O)c2cc(NS(=O)(=O)c3ccc(F)cc3)ccc2O[C@H]1CN(C)S(=O)(=O)c1ccc(F)cc1`, for which the AC50 in test [11] is 42.4 µM (active).
As for `COc1ccc(Cl)cc1N=C(S)NNC(=O)C1(C)CC1(Cl)Cl` (stereo unspecified), the IC50 in [4] was > 50 µM (inactive).
As for `COc1ccc(C(=O)c2cc([N+](=O)[O-])ccc2N2CCCC2)cc1`, the EC50 in test [12] is 3.06 µM (active); in test [13] it was 58.2 µM (active); in [14], 3.87 µM (inconclusive); in [15] it was 13 µM (active).
Consider `CC(=O)Nc1cc(NC(C)=O)cc(C(=O)OCC(=O)N2CC(C)OC(C)C2)c1` (stereo unspecified), for which, in [5], the IC50 was > 100 µM (inactive).
With `O=C(c1ccccc1)c1cc([N+](=O)[O-])ccc1N1CCCC1`, the EC50 in test [12], in [13], in test [14] and in test [15] was > 150 µM (not active) throughout.
For `Fc1cccc(CSc2ccc(-c3ccco3)nn2)c1`, the IC50 in [5] was > 100 µM (inactive). Further, the figures for the concentration for a half-maximal effect (EC50) in [16] and in test [17] were 49.2 µM (active) and 8.43 µM (active), respectively.
